The text below walks through data of patent publication US20030176470A1, “Topical composition containing at least one aryl oxime, and method for the preparation thereof” (priority 2000, published 2003).

Data set [1] in a line: solubility in different solvents. In kind it is physicochemical. The following applies: in solvents such as isopropanol, acetone, chloroform, 2-phenylethanol and Triton-X100. As to the method: Numerous studies were conducted in order to obtain optimum compositions of the active agent in which an improvement of solubility and, a prevention of the formation of crystals is achieved. […] Therefore, the carriers must be non-toxic, non-carcinogenic and skin compatible and, furthermore, should be odour neutral. Moreover, these carriers, e.g. solvents or emulsifiers, should be compatible with the major part of the topical composition, i.e. an aqueous phase or an oil phase, and should not form a separate phase or lead to the precipitation of the active agent.

A short description of data set [2]: stability of ethanolic solutions of the active agent. In kind it is physicochemical. An excerpt:
During investigations regarding the solubility of, in particular, 2-hydroxy-5-methyl-laurophenone oxime, solutions could be prepared which are stable after 4 days at room temperature under the exclusion of UV light. These solutions were ethanolic solutions of the active agent which included further components such as 0.8/1.0 and 2.0% PEG600 or PEG6000. The active agent was present in these solutions in an amount of 10 wt. %. […] These solutions can be incorporated into water in order to prepare topical formulations.

With 2-hydroxy-5-methyl-laurophenone oxime, in data set [1], the solubility result was “good solubility”. The formation of crystals result in data set [2] (ethanolic PEG solutions, amount of active agent increased above 10 wt. %) is “formation of crystals was observed”; in data set [2] (solution of the active agent incorporated into water at 10 to 20 wt. % of the formulation), “in some cases the formation of crystals”. Moreover, the stability of solution result in data set [2] (ethanolic solutions with 0.8/1.0 and 2.0% PEG600 or PEG6000, active agent 10 wt. %, 4 days at room temperature under exclusion of UV light) is “stable”.
